Results taken from patent publication US6548527B2, “Treatments for immune-mediated ear disorders” (The General Hospital Corporation, priority 2000, dated 2003).

Columns and labels:
Type in all cases: in vivo, human
[1] = system: patients with progressive IMCVD; assay: Etanercept treatment of twelve patients with progressive IMCVD (25 mg subcutaneous injection twice a week)
From the text: Study subjects were suspected of having IMCVDs mainly based on (1) the presence of bilateral sensorineural healing loss or typical symptoms of Meniere's disease with a recent progressive decline, (2) a clear response to high dose prednisone therapy, and/or (3) the presence of anti-HSP70 antibodies. Reasons for attempting etanercept therapy in these study patients included: (a) failure of conventional treatments in seven, (b) side effects of conventional treatment in three, (c) the need for corticosteroid sparing agent with a quick onset of action given intolerable corticosteroid side effects and rapidly progressive worsening of hearing in three, and (d) the patient's wish to avoid conventional agents in two given their known side effects of sub-optimal efficacy profile.
Of the 12 patients, six (50%) were women. The mean age was 47 (range, 24 to 71), and the mean duration of disease prior to the etanercept therapy was 13 years (range, 2 to 25 years). All 12 patients had both ears involved, 2 had predominantly one ear involvement with good hearing in the contralateral ear, 4 had significant loss of hearing in both ears, and 6 had lost all functional hearing in one ear and were treated with etanercept for a recent progressive decline of the remaining hearing. […] Patient # 9 had symmetric polyarthralgia, morning stiffness without documented synovitis, negative rheumatoid factor and positive anti-nuclear antibodies. Four of the 10 patients who were tested had antibodies to HSP70. Previous anti-rheumatic treatments included methotrexate in five, cyclophosphamide (CYTOXAN) in two, hydroxycholoquine in one, and chlorambucil in one. All patients received a trial of diuretics and sodium-restricted diet. Two of the patients had hypertension, one had diet-controlled diabetes mellitus, one had hyperlipidemia, and one had hypothyroidism.
Etanercept was started while the patients were on high dose prednisone (except in 2 cases, who were already off prednisone because of intolerable side-effects). The prednisone dose was then tapered off over 2 to 6 weeks (except in 2 cases) depending on disease severity, response to prednisone, and the severity of side effects of prednisone. The mean duration of the etanercept treatment in the 12 patients was 7 months (82 patient-months; range, 5 to 10 months) and mean follow-up from the start date of etanercept therapy was 8 months (range: 5.66 to 12 months). Seven of the twelve patients were still on etanercept at the end of study period (mean duration of 7 months) and the remaining five discontinued the drug. Four patients discontinued the drug at the end of the target period (6 months), and one patient was switched to infliximab (Remicade™), another TNF-receptor blocker for less than desired benefit from etanercept (duration 9 months). A criteria of prednisone response was based on improvements in hearing, vertigo, and equilibrium, as previously published by Sismanis et al. (Otolaryngology—Head and Neck Surgery 116(2): 146-52, 1997).
The main outcome measurement was improvement or stabilization of hearing by air conduction pure tone audiograms and/or by word discrimination scores. A slightly modified version of improvement criteria which was previously used to evaluate the efficacy of glucocorticoids was employed for IMCVDs: >15 dB at one frequency, 10 dB at two or more consecutive frequencies, or 15% increase in word discrimination scores (Sismanis et al., supra; Rauch, Annals of the New York Academy of Sciences 830:203-210, 1997). The audiogram before initiation of etanercept was compared with the most recent audiogram. When present, vertigo, tinnitus, and fullness were assessed using a 3-level response scale: better, no change, and worse. Outcomes were based on measurements at the farthest follow-up from the initiation of etanercept or at the declaration of no improvement in hearing by etanercept therapy, whichever came first. More than a 5-month follow-up was available for all patients (range: 5-12 months) […]

[2] = system: patients with IMCVD; assay: Two other separate trials of etanercept in additional IMCVD patients
[3] = system: patients with IMCVD; assay: Initial trials of leflunomide in patients with IMCVD (20 mg orally every day); conditions: of 3 patients, 5-6 month or 1-year regimen
[4] = system: patients with IMCVD; assay: Infliximab trial in patients with IMCVD (3 mg/kg intravenous infusion every two months); conditions: of 3 patients; 3 mg/kg i.v. infusion every two months, at least 6 months
Description: In addition to etanercept, another TNF antagonist, infliximab, was also tested for efficacy. In this trial, 3 patients with IMCVD were treated with 3 mg/kg body weight of Remicade™ by intravenous infusion every two months. Treatment was continued for at least 6 months, and the patients were monitored.

[5] = single patient #1 on etanercept

Molecule: etanercept
- patients who had aural fullness with resolution or significant improvement of symptoms ([1]; 8 out of 9 patients who had aural fullness): 89%
- patients on prednisone able to taper off prednisone without affecting their hearing ([1]; 10 patients on variable doses of prednisone to maintain hearing, after starting etanercept): Eight of the 10
- patients with improvement or stabilization of hearing and tinnitus ([1]; 11 out of 12 patients, 25 mg s.c. twice a week, follow-up 5-12 months): 92%
- adverse reactions ([1]; 12 patients, 25 mg s.c. twice a week): no adverse reactions except for mild transient injection-site reactions in a few patients
- patients who had vertigo with resolution or significant improvement of symptoms ([1]; Seven out of 8 patients who had vertigo): 88%
- side effects during the follow-up period ([1]; follow-up period): no appreciable side effects
- persistence of benefit until the last visit, time after starting etanercept ([1]; human, in vivo): 5 to 12 months
- hearing fluctuation, tinnitus, aural fullness and vertigo, patient #1 [1, 5]: the fluctuation stabilized and their tinnitus, aura fullness, and vertigo resolved
- overall hearing, patient #1 [1, 5]: did not have any significant improvement
- tinnitus and vertigo after switching to etanercept, patient #8 ([1]; single patient #8): improvement
- hearing outcome, patient #8 switched to etanercept ([1]; single patient #8, previously losing hearing on methotrexate and chlorambucil): stabilized their hearing after being switched to etanercept but at a lower level than their baseline
- hearing outcome, patient #11 on etanercept ([1]; single patient #11): initial dramatic improvement after starting etanercept but deteriorated after 5 months
- patients who experienced improvement in tinnitus, aural fullness, and vertigo ([1]; summary of 12 patients): approximately 90%
- patients who stabilized their rapidly progressing hearing loss ([1]; summary of 12 patients): 33%
- patients with remarkable improvement of hearing ([1]; summary of 12 patients): 58%
- patients showing positive outcomes ([2]; in sum, out of 18 patients with IMCVD treated with etanercept (all trials)): 16 patients
- outcome of IMCVD symptoms in additional patients ([2]; six additional patients in two other separate trials): all showed improvement or stabilization of IMCVD symptoms

Molecule: Cc1oncc1C(=O)Nc1ccc(C(F)(F)F)cc1 [leflunomide, N-(4′-trifluoromethylphenyl)-5-methylisoxazole-4-carboxamide]
- patients exhibiting positive results [3]: 2 patients
- overall hearing after leflunomide was later added, patient #8 ([1]; single patient #8, leflunomide added to etanercept): did not make any difference
- hearing outcome after addition of leflunomide to etanercept, patient #11 ([1]; single patient #11, leflunomide added to etanercept after deterioration): rescued and stabilized

Molecule: infliximab: chimeric monoclonal antibody that binds to TNF-α, marketed as Remicade
- patients exhibiting positive results [4]: 3 patients
- hearing after switch from etanercept to infliximab, patient #11 ([1]; single patient #11, switched after 9 months on etanercept): remained unchanged
